From ChEMBL document CHEMBL3217454, “Structureactivity relationship studies using peptide arrays: the example of HIV-1 Revintegrase interaction” (Medchemcomm, 2013)
Square brackets hold non-standard residues; d marks the D form. Peptide text beside a SMILES is read from it. NMeF = CN[C@@H](Cc1ccccc1)C(=O)O; NMeV = CN[C@H](C(=O)O)C(C)C

Tests used:
[1] = target: Human immunodeficiency virus type 1 integrase (Human immunodeficiency virus 1) (UniProt Q7ZJM1); assay: Binding affinity to HIV-1 integrase measured after overnight incubation by chemiluminescence analysis relative to IN 174-188; parameters: concentration or dose not given beside the values
[2] = tested on: Human immunodeficiency virus 1; assay: Binding affinity to HLT-tagged HIV-1 Rev measured after overnight incubation by chemiluminescence analysis relative to IN 174-188; parameters: concentration or dose not given beside the values

Human immunodeficiency virus type 1 integrase (Human immunodeficiency virus 1), sequence (Q7ZJM1 as listed by the source): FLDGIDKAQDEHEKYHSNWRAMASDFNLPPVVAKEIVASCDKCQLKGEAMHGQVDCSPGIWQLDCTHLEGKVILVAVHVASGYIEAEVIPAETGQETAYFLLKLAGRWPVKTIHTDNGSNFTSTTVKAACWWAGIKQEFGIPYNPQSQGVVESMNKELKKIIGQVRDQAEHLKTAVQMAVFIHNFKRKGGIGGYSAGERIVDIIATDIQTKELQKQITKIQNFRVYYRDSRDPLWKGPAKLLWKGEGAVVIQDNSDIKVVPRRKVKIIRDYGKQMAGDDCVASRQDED

SMILES	Activity [1] [%]	Activity [2] [%]
CC[C@H](C)[C@H](NC(=O)[C@H](Cc1ccccc1)NC(=O)[C@@H](NC(=O)[C@H](C)NC(=O)[C@H](CCSC)NC(=O)[C@H](CCC(N)=O)NC(=O)[C@@H](NC(=O)[C@H](C)NC(=O)[C@@H](N)[C@@H](C)O)C(C)C)C(C)C)C(=O)N[C@H](Cc1cnc[nH]1)C(=O)N[C@@H](CC(N)=O)C(=O)N[C@@H](Cc1ccccc1)C(=O)N[C@@H](CCCCN)C(=O)N[C@@H](CCCNC(=N)N)C(=O)N[C@@H](CCCCN)C(=O)O	105	105
CC[C@H](C)[C@H](NC(=O)[C@H](Cc1ccccc1)N(C)C(=O)[C@@H](NC(=O)[C@H](C)NC(=O)[C@H](CCSC)NC(=O)[C@H](CCC(N)=O)NC(=O)[C@@H](NC(=O)[C@H](C)NC(=O)[C@@H](N)[C@@H](C)O)C(C)C)C(C)C)C(=O)N[C@@H](Cc1cnc[nH]1)C(=O)N[C@@H](CC(N)=O)C(=O)N[C@@H](Cc1ccccc1)C(=O)N[C@@H](CCCCN)C(=O)N[C@@H](CCCNC(=N)N)C(=O)N[C@@H](CCCCN)C(=O)O (H-TAVQMAV[NMeF]IHNFKRK-OH)	141	152
CC[C@H](C)[C@H](NC(=O)[C@H](Cc1ccccc1)NC(=O)[C@@H](NC(=O)[C@H](C)NC(=O)[C@H](CCSC)NC(=O)[C@H](CCC(N)=O)NC(=O)[C@H](C)NC(=O)[C@H](C)NC(=O)[C@@H](N)[C@@H](C)O)C(C)C)C(=O)N[C@@H](Cc1cnc[nH]1)C(=O)N[C@@H](CC(N)=O)C(=O)N[C@@H](Cc1ccccc1)C(=O)N[C@@H](CCCCN)C(=O)N[C@@H](CCCNC(=N)N)C(=O)N[C@@H](CCCCN)C(=O)O (H-TAAQMAVFIHNFKRK-OH)	115	106
CC[C@H](C)[C@H](NC(=O)[C@H](C)NC(=O)[C@@H](NC(=O)[C@H](C)NC(=O)[C@H](CCSC)NC(=O)[C@H](CCC(N)=O)NC(=O)[C@@H](NC(=O)[C@H](C)NC(=O)[C@@H](N)[C@@H](C)O)C(C)C)C(C)C)C(=O)N[C@@H](Cc1cnc[nH]1)C(=O)N[C@@H](CC(N)=O)C(=O)N[C@@H](Cc1ccccc1)C(=O)N[C@@H](CCCCN)C(=O)N[C@@H](CCCNC(=N)N)C(=O)N[C@@H](CCCCN)C(=O)O (H-TAVQMAVAIHNFKRK-OH)	104	216
CC[C@H](C)[C@H](NC(=O)[C@H](Cc1ccccc1)NC(=O)[C@@H](NC(=O)[C@H](C)NC(=O)[C@@H](CCSC)NC(=O)[C@H](CCC(N)=O)NC(=O)[C@@H](NC(=O)[C@H](C)NC(=O)[C@@H](N)[C@@H](C)O)C(C)C)C(C)C)C(=O)N[C@@H](Cc1cnc[nH]1)C(=O)N[C@@H](CC(N)=O)C(=O)N[C@@H](Cc1ccccc1)C(=O)N[C@@H](CCCCN)C(=O)N[C@@H](CCCNC(=N)N)C(=O)N[C@@H](CCCCN)C(=O)O	127	196
CSCC[C@H](NC(=O)[C@H](CCC(N)=O)NC(=O)[C@@H](NC(=O)[C@H](C)NC(=O)[C@@H](N)[C@@H](C)O)C(C)C)C(=O)N[C@@H](C)C(=O)N[C@H](C(=O)N[C@@H](Cc1ccccc1)C(=O)N[C@@H](C)C(=O)N[C@@H](Cc1cnc[nH]1)C(=O)N[C@@H](CC(N)=O)C(=O)N[C@@H](Cc1ccccc1)C(=O)N[C@@H](CCCCN)C(=O)N[C@@H](CCCNC(=N)N)C(=O)N[C@@H](CCCCN)C(=O)O)C(C)C (H-TAVQMAVFAHNFKRK-OH)	156	254
CC[C@H](C)[C@H](NC(=O)[C@H](Cc1ccccc1)NC(=O)[C@@H](NC(=O)[C@H](C)NC(=O)[C@H](CCSC)NC(=O)[C@H](CCC(N)=O)NC(=O)[C@@H](NC(=O)[C@H](C)NC(=O)[C@@H](N)[C@@H](C)O)C(C)C)C(C)C)C(=O)N[C@@H](Cc1cnc[nH]1)C(=O)N[C@@H](CC(N)=O)C(=O)N[C@@H](Cc1ccccc1)C(=O)N[C@@H](CCCCN)C(=O)N[C@@H](C)C(=O)N[C@@H](CCCCN)C(=O)O (H-TAVQMAVFIHNFKAK-OH)	127	234
CC[C@H](C)[C@H](NC(=O)[C@H](Cc1ccccc1)NC(=O)[C@@H](NC(=O)[C@H](C)NC(=O)[C@H](CCSC)NC(=O)[C@H](CCC(N)=O)NC(=O)[C@@H](NC(=O)[C@H](C)NC(=O)[C@@H](N)[C@@H](C)O)C(C)C)C(C)C)C(=O)N[C@@H](Cc1cnc[nH]1)C(=O)N[C@@H](CC(N)=O)C(=O)N[C@@H](Cc1ccccc1)C(=O)N[C@@H](CCCCN)C(=O)N[C@@H](CCCNC(=N)N)C(=O)O (H-TAVQMAVFIHNFKR-OH)	87	114
CC[C@H](C)[C@H](NC(=O)[C@H](Cc1ccccc1)NC(=O)[C@H](NC(=O)[C@H](C)NC(=O)[C@H](CCSC)NC(=O)[C@H](CCC(N)=O)NC(=O)[C@@H](NC(=O)[C@H](C)NC(=O)[C@@H](N)[C@@H](C)O)C(C)C)C(C)C)C(=O)N[C@@H](Cc1cnc[nH]1)C(=O)N[C@@H](CC(N)=O)C(=O)N[C@@H](Cc1ccccc1)C(=O)N[C@@H](CCCCN)C(=O)N[C@@H](CCCNC(=N)N)C(=O)N[C@@H](CCCCN)C(=O)O	108	152
CC[C@H](C)[C@H](NC(=O)[C@H](Cc1ccccc1)NC(=O)[C@@H](NC(=O)[C@H](C)NC(=O)[C@H](CCSC)NC(=O)[C@H](CCC(N)=O)NC(=O)[C@H](NC(=O)[C@H](C)NC(=O)[C@@H](N)[C@@H](C)O)C(C)C)C(C)C)C(=O)N[C@@H](Cc1cnc[nH]1)C(=O)N[C@@H](CC(N)=O)C(=O)N[C@@H](Cc1ccccc1)C(=O)N[C@@H](CCCCN)C(=O)N[C@@H](CCCNC(=N)N)C(=O)N[C@@H](CCCCN)C(=O)O	115	226
CC[C@H](C)[C@H](NC(=O)[C@H](Cc1ccccc1)NC(=O)[C@@H](NC(=O)[C@H](C)NC(=O)[C@H](CCSC)NC(=O)[C@H](CCC(N)=O)NC(=O)[C@@H](NC(=O)[C@H](C)NC(=O)[C@@H](N)[C@@H](C)O)C(C)C)C(C)C)C(=O)N[C@@H](Cc1cnc[nH]1)C(=O)N[C@@H](CC(N)=O)C(=O)N[C@@H](Cc1ccccc1)C(=O)N[C@@H](CCCCN)C(=O)N[C@H](CCCNC(=N)N)C(=O)N[C@@H](CCCCN)C(=O)O	93	169
CC[C@H](C)[C@H](NC(=O)[C@H](Cc1ccccc1)NC(=O)[C@@H](NC(=O)[C@H](C)NC(=O)[C@H](CCSC)NC(=O)[C@H](CCC(N)=O)NC(=O)[C@@H](NC(=O)[C@@H](C)NC(=O)[C@@H](N)[C@@H](C)O)C(C)C)C(C)C)C(=O)N[C@@H](Cc1cnc[nH]1)C(=O)N[C@@H](CC(N)=O)C(=O)N[C@@H](Cc1ccccc1)C(=O)N[C@@H](CCCCN)C(=O)N[C@@H](CCCNC(=N)N)C(=O)N[C@@H](CCCCN)C(=O)O	105	209
CC[C@H](C)[C@H](NC(=O)[C@H](Cc1ccccc1)NC(=O)[C@H](C(C)C)N(C)C(=O)[C@H](C)NC(=O)[C@H](CCSC)NC(=O)[C@H](CCC(N)=O)NC(=O)[C@@H](NC(=O)[C@H](C)NC(=O)[C@@H](N)[C@@H](C)O)C(C)C)C(=O)N[C@@H](Cc1cnc[nH]1)C(=O)N[C@@H](CC(N)=O)C(=O)N[C@@H](Cc1ccccc1)C(=O)N[C@@H](CCCCN)C(=O)N[C@@H](CCCNC(=N)N)C(=O)N[C@@H](CCCCN)C(=O)O (H-TAVQMA[NMeV]FIHNFKRK-OH)	67	55
CC[C@H](C)[C@H](NC(=O)[C@H](Cc1ccccc1)NC(=O)[C@@H](NC(=O)[C@H](C)NC(=O)[C@H](CCSC)NC(=O)[C@H](CCC(N)=O)NC(=O)[C@@H](NC(=O)[C@H](C)NC(=O)[C@@H](N)[C@@H](C)O)C(C)C)C(C)C)C(=O)N[C@@H](Cc1cnc[nH]1)C(=O)N[C@@H](CC(N)=O)C(=O)N[C@@H](Cc1ccccc1)C(=O)N[C@H](CCCCN)C(=O)N[C@@H](CCCNC(=N)N)C(=O)N[C@@H](CCCCN)C(=O)O	110	120
CC[C@H](C)[C@H](NC(=O)[C@H](Cc1ccccc1)NC(=O)[C@@H](NC(=O)[C@H](C)NC(=O)[C@H](CCSC)NC(=O)[C@@H](N)CCC(N)=O)C(C)C)C(=O)N[C@@H](Cc1cnc[nH]1)C(=O)N[C@@H](CC(N)=O)C(=O)N[C@@H](Cc1ccccc1)C(=O)N[C@@H](CCCCN)C(=O)N[C@@H](CCCNC(=N)N)C(=O)N[C@@H](CCCCN)C(=O)O (H-QMAVFIHNFKRK-OH)	122	135
CC[C@H](C)[C@H](NC(=O)[C@H](Cc1ccccc1)NC(=O)[C@@H](NC(=O)[C@H](C)NC(=O)[C@H](CCSC)NC(=O)[C@H](CCC(N)=O)NC(=O)[C@@H](NC(=O)[C@H](C)NC(=O)[C@@H](N)[C@@H](C)O)C(C)C)C(C)C)C(=O)N[C@@H](Cc1cnc[nH]1)C(=O)N[C@@H](CC(N)=O)C(=O)O (H-TAVQMAVFIHN-OH)	0	0
CC[C@H](C)[C@H](NC(=O)[C@H](Cc1ccccc1)NC(=O)[C@@H](NC(=O)[C@H](C)NC(=O)[C@H](CCSC)NC(=O)[C@H](CCC(N)=O)NC(=O)[C@@H](NC(=O)[C@H](C)NC(=O)[C@@H](N)[C@@H](C)O)C(C)C)C(C)C)C(=O)N[C@@H](Cc1cnc[nH]1)C(=O)O (H-TAVQMAVFIH-OH)	0	0
CC[C@H](C)[C@H](NC(=O)[C@H](Cc1ccccc1)NC(=O)[C@@H](NC(=O)[C@H](C)NC(=O)[C@H](C)NC(=O)[C@H](CCC(N)=O)NC(=O)[C@@H](NC(=O)[C@H](C)NC(=O)[C@@H](N)[C@@H](C)O)C(C)C)C(C)C)C(=O)N[C@@H](Cc1cnc[nH]1)C(=O)N[C@@H](CC(N)=O)C(=O)N[C@@H](Cc1ccccc1)C(=O)N[C@@H](CCCCN)C(=O)N[C@@H](CCCNC(=N)N)C(=O)N[C@@H](CCCCN)C(=O)O (H-TAVQAAVFIHNFKRK-OH)	113	172
CC[C@H](C)[C@H](NC(=O)[C@H](Cc1ccccc1)NC(=O)[C@@H](NC(=O)[C@H](C)NC(=O)[C@H](CCSC)NC(=O)[C@@H](CCC(N)=O)NC(=O)[C@@H](NC(=O)[C@H](C)NC(=O)[C@@H](N)[C@@H](C)O)C(C)C)C(C)C)C(=O)N[C@@H](Cc1cnc[nH]1)C(=O)N[C@@H](CC(N)=O)C(=O)N[C@@H](Cc1ccccc1)C(=O)N[C@@H](CCCCN)C(=O)N[C@@H](CCCNC(=N)N)C(=O)N[C@@H](CCCCN)C(=O)O	154	173
CC[C@H](C)[C@H](NC(=O)[C@H](Cc1ccccc1)NC(=O)[C@@H](NC(=O)[C@H](C)NC(=O)[C@H](CCSC)NC(=O)[C@H](CCC(N)=O)NC(=O)[C@@H](NC(=O)[C@H](C)NC(=O)[C@@H](N)[C@@H](C)O)C(C)C)C(C)C)C(=O)N[C@@H](C)C(=O)N[C@@H](CC(N)=O)C(=O)N[C@@H](Cc1ccccc1)C(=O)N[C@@H](CCCCN)C(=O)N[C@@H](CCCNC(=N)N)C(=O)N[C@@H](CCCCN)C(=O)O (H-TAVQMAVFIANFKRK-OH)	122	121
